# Source: PMC6399515 (Insect Biochemistry and Molecular Biology, 2016)
# What was measured:
# CYP6M2 = CYP6M2 (Anopheles gambiae, UniProt Q7Q449); assay: biochemical
# CYP6P2 = target: T1, CYP6P2 (Anopheles gambiae, UniProt Q8T629, V81I); assay: biochemical; settings: IC50 of DEF metabolism
# T1 sequence (Q8T629 1-507 V81I): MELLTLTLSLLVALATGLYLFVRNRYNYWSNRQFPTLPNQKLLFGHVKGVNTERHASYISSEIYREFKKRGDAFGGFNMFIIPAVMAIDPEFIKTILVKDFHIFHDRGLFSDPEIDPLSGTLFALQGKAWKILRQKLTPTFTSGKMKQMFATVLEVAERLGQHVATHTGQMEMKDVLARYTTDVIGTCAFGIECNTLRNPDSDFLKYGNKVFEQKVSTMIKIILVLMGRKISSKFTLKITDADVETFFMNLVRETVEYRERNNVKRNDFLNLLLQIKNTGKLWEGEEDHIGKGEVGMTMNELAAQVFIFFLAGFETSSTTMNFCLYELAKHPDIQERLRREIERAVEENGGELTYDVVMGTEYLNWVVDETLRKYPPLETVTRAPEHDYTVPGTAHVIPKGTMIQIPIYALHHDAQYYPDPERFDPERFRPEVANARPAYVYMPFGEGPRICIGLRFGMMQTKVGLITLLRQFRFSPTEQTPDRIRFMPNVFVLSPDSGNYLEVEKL
# T1 sequence (Q7QFI3 1-587 partner): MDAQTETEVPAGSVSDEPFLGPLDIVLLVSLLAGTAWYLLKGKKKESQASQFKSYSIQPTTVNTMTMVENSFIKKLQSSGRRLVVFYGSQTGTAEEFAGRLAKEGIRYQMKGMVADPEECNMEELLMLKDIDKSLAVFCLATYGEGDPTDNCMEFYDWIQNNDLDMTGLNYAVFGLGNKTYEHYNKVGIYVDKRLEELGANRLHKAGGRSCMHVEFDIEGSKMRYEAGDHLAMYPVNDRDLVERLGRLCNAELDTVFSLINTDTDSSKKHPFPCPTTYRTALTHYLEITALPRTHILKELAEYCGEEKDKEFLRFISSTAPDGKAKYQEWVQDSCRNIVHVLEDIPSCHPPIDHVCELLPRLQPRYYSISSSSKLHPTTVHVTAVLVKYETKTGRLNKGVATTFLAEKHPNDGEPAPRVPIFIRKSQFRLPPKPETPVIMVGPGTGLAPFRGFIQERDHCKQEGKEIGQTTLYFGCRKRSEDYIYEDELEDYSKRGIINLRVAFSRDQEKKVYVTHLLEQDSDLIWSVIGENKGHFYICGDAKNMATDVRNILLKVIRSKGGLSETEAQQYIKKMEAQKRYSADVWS
# T1 sequence (Q86QH4 1-128 partner): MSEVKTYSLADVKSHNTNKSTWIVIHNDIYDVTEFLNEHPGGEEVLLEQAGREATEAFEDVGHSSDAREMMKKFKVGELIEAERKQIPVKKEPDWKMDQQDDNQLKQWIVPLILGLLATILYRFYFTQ
# CYP6Z2 = target: T2, CYP6Z2 (Anopheles gambiae, UniProt A8I285); assay: biochemical
# T2 sequence (A8I285 1-492): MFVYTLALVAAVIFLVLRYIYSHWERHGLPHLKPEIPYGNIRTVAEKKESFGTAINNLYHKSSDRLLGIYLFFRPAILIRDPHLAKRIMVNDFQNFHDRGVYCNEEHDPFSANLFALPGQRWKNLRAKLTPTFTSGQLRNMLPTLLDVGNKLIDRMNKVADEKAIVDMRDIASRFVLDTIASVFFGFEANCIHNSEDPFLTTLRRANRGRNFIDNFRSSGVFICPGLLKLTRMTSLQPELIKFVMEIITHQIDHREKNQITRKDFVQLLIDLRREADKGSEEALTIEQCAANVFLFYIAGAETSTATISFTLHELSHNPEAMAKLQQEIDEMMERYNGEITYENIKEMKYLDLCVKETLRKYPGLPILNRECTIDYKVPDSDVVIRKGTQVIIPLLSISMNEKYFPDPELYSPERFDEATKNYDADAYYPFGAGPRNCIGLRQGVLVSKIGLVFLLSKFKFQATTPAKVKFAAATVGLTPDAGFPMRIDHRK
# T2 sequence (Q86QH5 1-679 partner): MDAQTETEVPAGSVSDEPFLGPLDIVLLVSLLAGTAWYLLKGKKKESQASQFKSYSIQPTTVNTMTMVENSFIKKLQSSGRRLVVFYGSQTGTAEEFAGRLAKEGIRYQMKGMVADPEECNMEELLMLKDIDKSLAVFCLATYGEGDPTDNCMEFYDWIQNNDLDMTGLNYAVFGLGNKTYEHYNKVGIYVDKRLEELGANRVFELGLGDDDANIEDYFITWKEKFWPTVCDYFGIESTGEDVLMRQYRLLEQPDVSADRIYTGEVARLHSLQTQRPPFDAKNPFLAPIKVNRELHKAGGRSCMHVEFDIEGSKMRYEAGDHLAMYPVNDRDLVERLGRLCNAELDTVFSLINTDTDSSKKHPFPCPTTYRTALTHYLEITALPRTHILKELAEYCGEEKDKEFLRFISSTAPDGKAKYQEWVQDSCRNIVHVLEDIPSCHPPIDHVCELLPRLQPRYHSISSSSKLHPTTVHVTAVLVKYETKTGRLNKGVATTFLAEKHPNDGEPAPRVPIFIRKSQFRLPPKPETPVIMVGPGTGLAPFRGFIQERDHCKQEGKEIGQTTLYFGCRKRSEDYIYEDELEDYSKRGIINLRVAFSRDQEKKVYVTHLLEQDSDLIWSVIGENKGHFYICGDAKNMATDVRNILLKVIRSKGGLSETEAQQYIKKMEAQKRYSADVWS
# T2 sequence (Q86QH4 1-128 partner): T1 sequence (Q86QH4 1-128 partner)
# CYP6P3 = target: T3, CYP6P3 (Anopheles gambiae, UniProt Q8T632); assay: biochemical
# T3 sequence (Q8T632 1-509): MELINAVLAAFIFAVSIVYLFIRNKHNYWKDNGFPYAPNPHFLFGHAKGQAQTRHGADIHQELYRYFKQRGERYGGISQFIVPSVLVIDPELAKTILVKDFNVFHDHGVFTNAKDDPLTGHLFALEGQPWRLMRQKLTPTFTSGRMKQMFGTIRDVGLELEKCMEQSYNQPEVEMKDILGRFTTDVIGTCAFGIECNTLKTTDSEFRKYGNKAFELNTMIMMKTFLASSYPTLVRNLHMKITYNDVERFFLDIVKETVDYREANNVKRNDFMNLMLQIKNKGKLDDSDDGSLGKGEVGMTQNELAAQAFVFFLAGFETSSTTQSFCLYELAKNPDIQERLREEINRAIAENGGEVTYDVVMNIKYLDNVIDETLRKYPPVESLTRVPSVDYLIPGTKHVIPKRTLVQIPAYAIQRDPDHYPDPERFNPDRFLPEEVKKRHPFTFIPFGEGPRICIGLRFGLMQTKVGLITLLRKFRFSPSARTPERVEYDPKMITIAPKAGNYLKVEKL
# T3 sequence (Q86QH5 1-679 partner): T2 sequence (Q86QH5 1-679 partner)
# T3 sequence (Q86QH4 1-128 partner): T1 sequence (Q86QH4 1-128 partner)
# CYP9J5 = target: T4, CYP9J5 (Anopheles gambiae, UniProt Q5TN57); assay: biochemical
# T4 sequence (Q5TN57 1-545): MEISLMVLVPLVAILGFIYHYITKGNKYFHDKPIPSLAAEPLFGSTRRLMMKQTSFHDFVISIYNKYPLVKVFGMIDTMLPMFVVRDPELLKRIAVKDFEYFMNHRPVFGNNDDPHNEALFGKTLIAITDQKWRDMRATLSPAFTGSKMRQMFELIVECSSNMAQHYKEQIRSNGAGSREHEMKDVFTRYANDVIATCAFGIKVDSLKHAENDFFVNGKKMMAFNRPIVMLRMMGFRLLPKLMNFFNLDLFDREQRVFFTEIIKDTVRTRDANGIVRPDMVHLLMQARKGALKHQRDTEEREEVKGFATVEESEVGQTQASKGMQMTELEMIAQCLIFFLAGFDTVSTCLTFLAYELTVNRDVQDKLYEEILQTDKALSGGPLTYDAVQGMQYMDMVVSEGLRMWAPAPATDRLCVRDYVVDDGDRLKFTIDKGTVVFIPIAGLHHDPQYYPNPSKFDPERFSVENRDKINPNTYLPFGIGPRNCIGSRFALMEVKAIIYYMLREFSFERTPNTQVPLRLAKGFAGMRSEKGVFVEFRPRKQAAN
# T4 sequence (Q86QH5 1-679 partner): T2 sequence (Q86QH5 1-679 partner)
# T4 sequence (Q86QH4 1-128 partner): T1 sequence (Q86QH4 1-128 partner)
# [1] = tested on: all mosquito P450s of the panel apart from CYP6Z2 (CYP6M2, CYP6P2, CYP6P3, CYP6P4, CYP9J5); assay: in vitro; settings: Anopheles gambiae
# Chain of CYP6M2 (Q7Q449 1-499, one chain of several): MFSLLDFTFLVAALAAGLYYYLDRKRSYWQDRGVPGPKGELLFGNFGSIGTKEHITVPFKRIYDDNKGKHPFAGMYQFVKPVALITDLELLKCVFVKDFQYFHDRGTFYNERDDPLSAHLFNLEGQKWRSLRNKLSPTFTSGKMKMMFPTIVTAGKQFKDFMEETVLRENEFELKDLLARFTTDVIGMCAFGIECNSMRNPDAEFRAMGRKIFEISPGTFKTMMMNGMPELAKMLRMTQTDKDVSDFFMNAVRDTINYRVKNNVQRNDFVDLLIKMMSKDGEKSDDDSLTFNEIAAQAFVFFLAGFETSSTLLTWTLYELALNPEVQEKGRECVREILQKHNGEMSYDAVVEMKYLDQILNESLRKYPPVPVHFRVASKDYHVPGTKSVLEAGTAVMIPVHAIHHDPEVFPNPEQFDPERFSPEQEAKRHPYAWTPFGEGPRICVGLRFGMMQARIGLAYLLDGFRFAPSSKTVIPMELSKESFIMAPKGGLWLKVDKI
structure (smiles),measurement,setting,value
"CC1(C)[C@H](C(=O)O[C@H](C#N)c2cccc(Oc3ccccc3)c2)[C@@H]1C=C(Br)Br [Deltamethrin, (S)-α-cyano-3-phenoxybenzyl (1R,3R)-cis-2,2-dimethyl-3-(2,2-dibromovinyl)-cyclopropanecarboxylate]",IC50,CYP6M2,4.24 µM
same,IC50,CYP6P2,4.97 µM
same,IC50,CYP6Z2; IC50 of DEF metabolism,14 µM
same,IC50,CYP6Z2; category of inhibition of DEF metabolism,> 10 µM
same,IC50,CYP6P3,3.17 µM
same,IC50,CYP9J5,6.05 µM
same,IC50,"[1]; pH 7.4, IC50 of DEF activity",1 to 10 µM
same,IC50,"[1]; pH 7.4, category of inhibition of DEF activity",1 to 10 µM
